Measurements taken from US8034819B2, “Glucokinase activator” (Kyorin Pharmaceutical Co., Ltd., priority 2007, dated 2011).

system: ICR mice; experiment: Hypoglycemic activity test; assay type: in vivo; conditions: compared with compound 1 of the invention
Protocol: Using ICR mice (male, 7 to 9 weeks, Charles River Laboratories Japan Inc.) the effects of each of the tested compounds on blood glucose levels were measured. Each compound was dissolved in a mixture of 60/40 of Gelucire 44/14 (trade name, manufactured by Gatefosse) and PEG 400, and the resulting mixture was orally administered (30 mg/kg, 10 mL/kg) to the mice, which had not been fed for two hours. Blood was collected by a blood collection tube coated with dipotassium ethylenediamine tetraacetate from the tail vein before administration (pre-value) and at points 0.5, 2, and 4 hours after administration. The collected blood was separated by centrifugation (4° C., 3,600×g, 3 minutes), to obtain blood plasma samples.
Each sample was diluted 5-fold with physiological saline, and the blood glucose level was measured using glucose CII-test Wako (trade name, manufactured by Wako Pure Chemical Industries Ltd.). 10 μL each of one of the samples, physiological saline, and 100 mg/dL of glucose standard solution (200 mg/dL of glucose standard solution diluted two-fold with physiological saline) were placed in each well of a 96 well flat bottom plate. Then, 150 μL per well of a developing solution was added, and the color was developed by standing for 5 minutes at 37° C. Measurement was carried out at OD 505 nm using an En Vision 2103 Multilabel Reader (trade name, manufactured by PerkinElmer). The decrease in Σ glucose from the decrease in glucose of each collected point with respect to the pre-value (average of the decrease in glucose of each collected point with respect to the pre-value) was calculated.

| SMILES | hypoglycemic activity (in words) |
| --- | --- |
| O=C(Nc1nccs1)C(CC1CC(F)C(F)C1)c1ccc(S(=O)(=O)C2CC2)cc1 (single isomer, unassigned; (+)) [(+)-2-[4-(cyclopropylsulfonyl)phenyl]-3-[(1β,3α,4α)-3,4-difluorocyclopentyl]-N-(thiazol-2-yl)propionamide] | do not exhibit high hypoglycemic activity |
| O=C(Nc1nccs1)C(C[C@H]1C[C@@H](F)[C@@H](F)C1)c1ccc(S(=O)(=O)C2CC2)cc1 (single isomer, unassigned; (+)) [Reference Example 3, (+)-2-[4-(Cyclopropylsulfonyl)phenyl]-3-[(1α,3α,4α)-3,4-difluorocyclopentyl]-N-(thiazol-2-yl)propionamide] | do not exhibit high hypoglycemic activity |
| O=C(Nc1nccs1)C(CC1CC(F)C(F)C1)c1ccc(S(=O)(=O)C2CC2)cc1 (single isomer, unassigned; (-)) [(−)-2-[4-(Cyclopropylsulfonyl)phenyl]-3-[(1β,3α,4α)-3,4-difluorocyclopentyl]-N-(thiazol-2-yl)propionamide] | do not exhibit high hypoglycemic activity |
